# Laboratory results from PMC5823406, “Vehicle development, pharmacokinetics and toxicity of the anti-invasive agent 4-fluoro-3’,4’,5’-trimethoxychalcone in rodents” (PLoS ONE, 2018).
# Tests used:
# [1] = Plasma stability; assay type: in vitro ADME; conditions: plasma (rat, Sprague-Dawley)
# Source text: (§1) Table 3 In vitro physicochemical, stability and metabolism data. | column: Value
# [2] = test system: ICR mice; assay: Single-dose PO MTD study; assay type: in vivo; conditions: for Necropsy: gross findings: 72 h post dosing; for Autonomic / Behavioral / Neurologic: first 60 min; for Weigt increase (%): over 72 h, average±SD
# Description: Male ICR mice (20–26 g), were obtained from BioLASCO Taiwan. Animals were kept in conventional cages with wood chip bedding. Space allocation for 3–5 animals was 30 x 19 x 13 cm. All animals were healthy at the start of the trial and maintained in a well-controlled temperature (20–24°C) and humidity (30%-70%) environment with 12 h light/dark cycles. Free access to a standard lab diet [MFG (Oriental Yeast Co., Ltd., Japan)] and autoclaved tap water were granted.
# A single PO and IP dose progression test was conducted in which animals were dosed at a minimum of 72- or 24-h intervals, respectively. C16 (vehicle: 10% Solutol HS-15 / 90% PEG 600) was administered by oral gavage at 10 mL/kg to randomly assigned groups of 2 male and 2 female mice, or by IP injection at 5 mL/kg to randomly assigned groups of 5 male mice. Animals received an initial dose of 10 mg/kg. If 50% of the animals survived for 72 h (PO) or 30 min (IP), the dose for the next cohort was increased. If one or more animals died, the dose for the next cohort was decreased. The next dose level was determined by the decision scheme in Fig 2.
# Body weights were recorded before dosing and at the 72- (PO) or 24-h (IP) time point. Gross necropsy was performed in all animals without tissue collection.
# dose was increased or decreased in each subsequent test round until the MTD was discovered. Gross necropsy was
# performed in all animals without tissue collection.
# [3] = Stability test of C16 in 10% Solutol HS-15 / 90% PEG 600; assay type: physicochemical
# Description: Solutions of 30 mg/mL and 10 mg/mL of C16 were prepared and stored at room temperature and 4°C for 24 h. The stability of C16 was evaluated at 0, 1, 2, 4, 8 and 24 h after formulation by high-performance liquid chromatography-mass spectrometry/mass spectrometry (HPLC-MS/MS) (electrospray ionization, ESI+) analysis using oxybutynin as an internal standard (IS). Analyte samples were diluted 500x with acetonitrile (ACN)/H2O (20:80). This solution was further diluted 100x with an oxybutynin solution (1 ng/μL in ACN/H2O 20:80), giving a final concentration of 0.6 ng/μL and 0.2 ng/μL, respectively, for HPLC-MS/MS analysis (multiple reaction monitoring scan mode, MRM, see Section A of S1 File for more details). All analyses were performed in triplicates.
# A.A. Vehicles for single-dose studies a. Stability test of C16 in 10% Solutol HS -15 / 90% PEG 600
# Quantification was performed by calculating the ratio of the peak area (counts) of C16 and the IS. Results are expressed as relative differences to the peak ratio at 0 h (%RE, Table A).
# Table A. Stability in 10% Solutol HS -15 / 90% PEG 600: peak ratios.
# 10mg/mL at room temperature
# 30mg/mL at room temperature
# CV: Coefficient of variation; RE: Difference in peak area relative to indicated time point. […]
# [4] = Aqueous solubility; assay type: physicochemical; conditions: test concentration 200 μM
# Source text: as §1
# [5] = Liver microsome stability; assay type: in vitro ADME; conditions: liver microsomes (rat, Sprague-Dawley)
# Source text: as §1
# [6] = test system: MCF-7/6; parameters: method as in PMID 26204510; conditions: cited from earlier work
# [7] = biological target: CYP 2D6 (Homo sapiens, UniProt P10635); assay: CYP inhibition 2D6 (MFC substrate); assay type: in vitro ADME; conditions: 10 μM
# Sequence of CYP 2D6 (P10635 whole entry): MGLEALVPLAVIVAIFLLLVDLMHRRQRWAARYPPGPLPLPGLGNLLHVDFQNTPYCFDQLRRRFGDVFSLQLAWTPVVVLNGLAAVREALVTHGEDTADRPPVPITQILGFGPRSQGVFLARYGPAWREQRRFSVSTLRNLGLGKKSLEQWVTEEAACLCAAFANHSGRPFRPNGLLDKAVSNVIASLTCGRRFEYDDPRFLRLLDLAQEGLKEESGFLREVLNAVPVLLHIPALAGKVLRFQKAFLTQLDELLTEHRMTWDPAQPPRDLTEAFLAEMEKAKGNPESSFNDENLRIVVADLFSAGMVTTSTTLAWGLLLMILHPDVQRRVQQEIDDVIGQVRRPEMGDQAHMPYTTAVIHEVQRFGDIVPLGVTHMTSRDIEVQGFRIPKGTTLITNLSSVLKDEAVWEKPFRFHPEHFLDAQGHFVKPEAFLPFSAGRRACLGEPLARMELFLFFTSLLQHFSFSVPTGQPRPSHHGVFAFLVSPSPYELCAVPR
# Source text: as §1
structure (smiles),measurement,setting,value
"COc1cc(C(=O)/C=C/c2ccc(F)cc2)cc(OC)c1OC [C16, 4-fluoro-3’,4’,5’-trimethoxychalcone]",half-life at 1 μM,[1],> 120 min
same,tolerated dose,"[2]; ICR mice, PO oral gavage, single dose",10 to 300 mg/kg
same,Deaths,"[2]; PO 10 mg/kg, F",0/2
same,Necropsy: gross findings,"[2]; PO 10 mg/kg, F",none
same,Autonomic,"[2]; PO 10 mg/kg, F",none
same,Behavioral,"[2]; PO 10 mg/kg, F",none
same,Neurologic,"[2]; PO 10 mg/kg, F",none
same,Weigt increase (%),"[2]; PO 10 mg/kg, F",2±3%
same,Deaths,"[2]; PO 10 mg/kg, M",0/2
same,Necropsy: gross findings,"[2]; PO 10 mg/kg, M",none
same,Autonomic,"[2]; PO 10 mg/kg, M",none
same,Behavioral,"[2]; PO 10 mg/kg, M",none
same,Neurologic,"[2]; PO 10 mg/kg, M",none
same,Weigt increase (%),"[2]; PO 10 mg/kg, M",25±3%
same,Deaths,"[2]; PO 30 mg/kg, F",0/2
same,Necropsy: gross findings,"[2]; PO 30 mg/kg, F",none
same,Autonomic,"[2]; PO 30 mg/kg, F",none
same,Behavioral,"[2]; PO 30 mg/kg, F",none
same,Neurologic,"[2]; PO 30 mg/kg, F",none
same,Weigt increase (%),"[2]; PO 30 mg/kg, F",6±3%
same,Deaths,"[2]; PO 30 mg/kg, M",0/2
same,Necropsy: gross findings,"[2]; PO 30 mg/kg, M",none
same,Autonomic,"[2]; PO 30 mg/kg, M",none
same,Behavioral,"[2]; PO 30 mg/kg, M",none
same,Neurologic,"[2]; PO 30 mg/kg, M",none
same,Weigt increase (%),"[2]; PO 30 mg/kg, M",18±3%
same,Deaths,"[2]; PO 100 mg/kg, F",0/2
same,Necropsy: gross findings,"[2]; PO 100 mg/kg, F",none
same,Autonomic,"[2]; PO 100 mg/kg, F",none
same,Behavioral,"[2]; PO 100 mg/kg, F","Yes: B,C"
same,Neurologic,"[2]; PO 100 mg/kg, F",none
same,Weigt increase (%),"[2]; PO 100 mg/kg, F",8±1%
same,Deaths,"[2]; PO 100 mg/kg, M",0/2
same,Necropsy: gross findings,"[2]; PO 100 mg/kg, M",none
same,Autonomic,"[2]; PO 100 mg/kg, M",none
same,Behavioral,"[2]; PO 100 mg/kg, M","Yes: A,C"
same,Neurologic,"[2]; PO 100 mg/kg, M",none
same,Weigt increase (%),"[2]; PO 100 mg/kg, M",25±1%
same,Deaths,"[2]; PO 300 mg/kg, F",0/2
same,Necropsy: gross findings,"[2]; PO 300 mg/kg, F",none
same,Autonomic,"[2]; PO 300 mg/kg, F",none
same,Behavioral,"[2]; PO 300 mg/kg, F",Yes: A
same,Neurologic,"[2]; PO 300 mg/kg, F",none
same,Weigt increase (%),"[2]; PO 300 mg/kg, F",7±3%
same,Deaths,"[2]; PO 300 mg/kg, M",0/2
same,Necropsy: gross findings,"[2]; PO 300 mg/kg, M",none
same,Autonomic,"[2]; PO 300 mg/kg, M",none
same,Behavioral,"[2]; PO 300 mg/kg, M",Yes: A
same,Neurologic,"[2]; PO 300 mg/kg, M",none
same,Weigt increase (%),"[2]; PO 300 mg/kg, M",17±0%
same,maximum tolerated single dose,"[2]; mouse, oral gavage",> 300 mg/kg
same,%RE to 0 h (peak ratio C16/IS),"[3]; 10mg/mL at 4 °C, 1 h",1.2%
same,%RE to 0 h (peak ratio C16/IS),"[3]; 10mg/mL at 4 °C, 2 h",-2.9%
same,%RE to 0 h (peak ratio C16/IS),"[3]; 10mg/mL at 4 °C, 4 h",1.4%
same,%RE to 0 h (peak ratio C16/IS),"[3]; 10mg/mL at 4 °C, 8 h",-0.6%
same,%RE to 0 h (peak ratio C16/IS),"[3]; 10mg/mL at 4 °C, 24 h",-1.4%
same,%RE to 0 h (peak ratio C16/IS),"[3]; 10mg/mL at room temperature, 1 h",1.8%
same,%RE to 0 h (peak ratio C16/IS),"[3]; 10mg/mL at room temperature, 2 h",1.8%
same,%RE to 0 h (peak ratio C16/IS),"[3]; 10mg/mL at room temperature, 4 h",-1.0%
same,%RE to 0 h (peak ratio C16/IS),"[3]; 10mg/mL at room temperature, 8 h",1.4%
same,%RE to 0 h (peak ratio C16/IS),"[3]; 10mg/mL at room temperature, 24 h",2.9%
same,%RE to 0 h (peak ratio C16/IS),"[3]; 30mg/mL at 4°C, 1 h",4.8%
same,%RE to 0 h (peak ratio C16/IS),"[3]; 30mg/mL at 4°C, 2 h",-6.1%
same,%RE to 0 h (peak ratio C16/IS),"[3]; 30mg/mL at 4°C, 4 h",3.5%
same,%RE to 0 h (peak ratio C16/IS),"[3]; 30mg/mL at 4°C, 8 h",5.0%
same,%RE to 0 h (peak ratio C16/IS),"[3]; 30mg/mL at 4°C, 24 h",1.6%
same,%RE to 0 h (peak ratio C16/IS),"[3]; 30mg/mL at room temperature, 1 h",-0.6%
same,%RE to 0 h (peak ratio C16/IS),"[3]; 30mg/mL at room temperature, 2 h",0.2%
same,%RE to 0 h (peak ratio C16/IS),"[3]; 30mg/mL at room temperature, 4 h",-3.1%
same,%RE to 0 h (peak ratio C16/IS),"[3]; 30mg/mL at room temperature, 8 h",-5.4%
same,%RE to 0 h (peak ratio C16/IS),"[3]; 30mg/mL at room temperature, 24 h",0.3%
same,Stability of solutions in 10% Solutol HS-15 / 90% PEG 600,"[3]; 10 and 30 mg/mL, room temperature (20–25 °C) and 4°C over 24 h",stable
same,Aqueous solubility,"[4]; PBS, pH 7.4",7.9 µM
same,Aqueous solubility,[4]; simulated gastric fluid,9.1 µM
same,Aqueous solubility,[4]; simulated intestinal fluid,2.4 µM
same,half-life at 0.1 μM,[5],20 min
same,microsomal CLint at 0.1 μM,[5]; read-out: Intr. clearance,339 µL/min/mg
same,"Activity level in 3D confrontation culture (chick heart invasion assay, MCF-7/6)",[6],10 nM
same,CYP inhibition 2D6 (MFC substrate),[7],-19 % inhibition of control
